Reference: publication PMC7139656, “The Landscape of the Anti-Kinase Activity of the IDH1 Inhibitors” (Cancers, 2020)

Assays:
[1] = tested on: mutant IDH1 (2-HG production) in K562 cells; experiment: Mutant IDH1 activity - D-2-hydroxyglutarate production in K562 cells; type: cell-based, human; settings: 24-h incubation; for D-2-HG level after treatment (decrease to): 30 μM
Method: The K562 and U-251 cells were seeded in 3-cm Petri dishes (Nunc) at a density of 0.5 × 10^6 cells/well and incubated at 37 °C for 24 h. […] After a 24-h treatment, the assays were performed using a D-2-Hydroxyglutarate Assay Kit (Abcam) according to the manufacturer’s instructions. Briefly, 25 μL of each cell lysate was transferred onto 96-well plates. Internal and external standards (containing 1 mM D2HG) were also prepared. Then, a freshly prepared reaction mix containing D2HG Assay Buffer, D2HG Enzyme and D2HG Substrate Mix was added to each well. Reaction mixes with the cell lysates were incubated for 60 min at 37 °C in the dark. The optical densities of the samples were analyzed at 450 nm using a Synergy 4 multi-plate reader. The experiments were performed at least four times. The D-2-Hydroxyglutarate concentration is expressed as nM/μL.

[2] = tested on: ABL1 recombinant protein; parameters: method as in PMID 19679652; settings: cited from earlier work
[3] = tested on: IDH1 R132H; settings: cited from earlier work
[4] = biological target: ABL1 enzyme (Homo sapiens, UniProt P00519); experiment: Pharmacological synergy on the ABL enzyme model (TOS inhibitors and axitinib, ABL1 Kinase Assay, Chou-Talalay); settings: for Combination index [CI]: combination with axitinib, for Fa = 0.9, CI < 1 synergy, CompuSyn
Method: The experiments were performed at least three times. The synergy was calculated according to the Chou-Talay method (CompuSyn software) [33, 70]. Briefly, the concentration range was adjusted to cover the specified IC50 value against the ABL1 enzyme for each inhibitor.

[5] = tested on: HCT 116 p53+/+; experiment: Cytotoxicity / antiproliferative activity, MTS test; type: cell-based; settings: Homo sapiens, 72-h incubation
Method: (§1) M. Rusin from the Maria Sklodowska-Curie Memorial Cancer Centre and Institute of Oncology in Gliwice, Poland. […] G. Kramer-Marek from The Institute of Cancer Research in London, United Kingdom. The pancreatic cell line PANC-1 and the human chronic myelogenous leukemia cell line K562 were purchased from Sigma-Aldrich. […] All of these cell lines were grown under standard conditions at 37 °C in a 5% CO2 humidified atmosphere. Prior to beginning the experiments, all of the cell lines were subjected to routine mycoplasma testing with specific Mycoplasma primers using the PCR technique.
(§2) The exponentially growing cells for all of the cell lines were seeded in 96-well plates (Nunc) at a density of 5000 cells/well and incubated at 37 °C for 24 h. The assay was performed following a 72-h incubation with the various concentrations of the compounds that were being tested. Then, 20 µL of CellTiter 96®AQueous One Solution-MTS (Promega) solution was added to each well (with 100 µL DMEM without phenol red) and incubated for 1 h at 37 °C. The optical densities of the samples were analyzed at 490 nm using a multi-plate reader (Synergy 4, BioTek). The results are expressed as the percentage of the control and were calculated as the inhibitory concentration (IC50) values using GraphPad Prism 7. Each individual compound was tested in triplicate in a single experiment with each experiment being repeated five times.

[6] = tested on: U-251; experiment: as above; type: cell-based; settings: Homo sapiens, 72-h incubation
Method: as §1, §2

[7] = tested on: MCF-7; experiment: as above; type: cell-based; settings: Homo sapiens, MCF7, 72-h incubation
Method: as §1, §2

[8] = tested on: HCT 116 p53-/-; experiment: as above; type: cell-based; settings: Homo sapiens, 72-h incubation
Method: as §1, §2

[9] = tested on: PANC-1; experiment: as above; type: cell-based; settings: Homo sapiens, 72-h incubation
Method: as §1, §2

[10] = tested on: K562; experiment: as above; type: cell-based; settings: Homo sapiens, 72-h incubation
Method: as §1, §2

[11] = biological target: T1, ABL1 native (Homo sapiens, UniProt P00519); experiment: Tyrosine kinase inhibition in vitro (Kinase Selectivity TK-2 Profiling System, ADP-Glo); type: biochemical; settings: for inhibition at 0.5 µM: compound at 0.5 μM, read-out: Inhibitory Effect of the Non-Receptor Tyrosine Kinase Activity, ABL1 native
T1 construct: purchased Promega
Method: (§3) The inhibition of the tyrosine kinases by the tested compounds was measured using the Kinase Selectivity TK-2 Profiling Systems (Promega) as was previously reported. Briefly, the kinases (ABL1; BRK; BTK; CSK; Fyn A; Lck; Lyn B; Src) and substrate/co factor strips were prepared according to the manufacturer’s instructions. The compounds being tested were dissolved in DMSO to a concentration of 100 μM, which was then used as the stock solution to prepare the 0.5 μM final concentration in a 1x Kinase Reaction Buffer (40 mM Tris – pH 7.5; 20 mM MgCl2; 0.1 mg/mL BSA; 50 μM DTT). The experiment began with transferring 1 μl of the prepared solutions of the tested compounds onto a 384-well white plate that was designed for luminescence (Corning). Then, 2 μL of the kinases from the eight-well strip were added into each well and the plate was incubated for 10 min at room temperature (RT), after which 2 μL of the substrates from the eight-well substrate/co-factor strip were added to each well and the plate was left at RT for 1 h. Solutions of 1x Kinase Reaction Buffer with 5% vehicle (DMSO) were used as the negative controls without an inhibitor or enzymes. The activity of each kinase was determined using an ADP-Glo Kinase Assay (Promega). Firstly, in order to stop the reaction, 5 μL of ADP-Glo reagent was added to each well and the plate was incubated for 40 min at RT. Afterwards, 10 μL of the Kinase Detection Reagent was added to each well and the luminescence was measured in a Synergy 4 multi-plate reader following a 30-min incubation at RT. […] The data are expressed as the percentage of the inhibition of tyrosine kinase after treatment with the tested compounds.

[12] = biological target: T2, Lyn B (Homo sapiens, UniProt P07948); experiment: Tyrosine kinase inhibition in vitro (TK-2 panel, ADP-Glo); type: biochemical; settings: for inhibition at 0.5 µM: compound at 0.5 μM, read-out: Inhibitory Effect of the Non-Receptor Tyrosine Kinase Activity, Lyn B
T2 construct: purchased Promega

[13] = biological target: T3, ABL1 T315I (Homo sapiens, UniProt P00519, T315I); experiment: ABL (T315I) Kinase Assay (ADP-Glo); type: biochemical; settings: for inhibition at 0.5 µM: compound at 0.5 μM, read-out: Inhibitory Effect of the Non-Receptor Tyrosine Kinase Activity, ABL1 T315I
T3 construct: purchased Promega
Method: as §3
Briefly, the solutions of the compounds being tested at various concentrations were prepared in a 1x Kinase Reaction Buffer. Firstly, 1 μl of the solutions of the tested compounds or vehicle – 5% DMSO (as the control without an inhibitor) were added onto a 384-well low volume white plate. […] After 10 min of incubation at RT, 2 μL of the substrate/ATP mixture was added to each well and incubated for 1h at RT. The luminescence of the kinase activity after treatment with the tested compounds was measured using an ADP-Glo Kinase Assay as was described above. The experiments were performed three times and the results are presented as the IC50 values, which were calculated using GraphPad Prism 7.

[14] = biological target: T4, Src (Homo sapiens, UniProt P12931); experiment: Tyrosine kinase inhibition in vitro (TK-2 panel, ADP-Glo); type: biochemical; settings: compound at 0.5 μM; read-out: Inhibitory Effect of the Non-Receptor Tyrosine Kinase Activity, Src
T4 construct: purchased Promega
Method: as §3

[15] = biological target: T5, Lck (Homo sapiens, UniProt P06239); experiment: as above; type: biochemical; settings: compound at 0.5 μM; read-out: Inhibitory Effect of the Non-Receptor Tyrosine Kinase Activity, Lck
T5 construct: purchased Promega
Method: as §3

[16] = biological target: T6, CSK (Homo sapiens, UniProt P41240); experiment: as above; type: biochemical; settings: compound at 0.5 μM; read-out: Inhibitory Effect of the Non-Receptor Tyrosine Kinase Activity, CSK
T6 construct: purchased Promega
Method: as §3

[17] = biological target: T7, BTK (Homo sapiens, UniProt Q06187); experiment: as above; type: biochemical; settings: for inhibition at 0.5 µM: compound at 0.5 μM, read-out: Inhibitory Effect of the Non-Receptor Tyrosine Kinase Activity, BTK
T7 construct: purchased Promega
Method: as §3

[18] = biological target: T8, Fyn A (Homo sapiens, UniProt P06241); experiment: as above; type: biochemical; settings: for inhibition at 0.5 µM: compound at 0.5 μM, read-out: Inhibitory Effect of the Non-Receptor Tyrosine Kinase Activity, Fyn A
T8 construct: purchased Promega
Method: as §3

[19] = biological target: T9, BRK (Homo sapiens, UniProt Q13882); experiment: as above; type: biochemical; settings: compound at 0.5 μM; read-out: Inhibitory Effect of the Non-Receptor Tyrosine Kinase Activity, BRK
T9 construct: purchased Promega
Method: as §3

[20] = tested on: wild-type IDH1; settings: cited from earlier work

T8 sequence (P06241 whole entry): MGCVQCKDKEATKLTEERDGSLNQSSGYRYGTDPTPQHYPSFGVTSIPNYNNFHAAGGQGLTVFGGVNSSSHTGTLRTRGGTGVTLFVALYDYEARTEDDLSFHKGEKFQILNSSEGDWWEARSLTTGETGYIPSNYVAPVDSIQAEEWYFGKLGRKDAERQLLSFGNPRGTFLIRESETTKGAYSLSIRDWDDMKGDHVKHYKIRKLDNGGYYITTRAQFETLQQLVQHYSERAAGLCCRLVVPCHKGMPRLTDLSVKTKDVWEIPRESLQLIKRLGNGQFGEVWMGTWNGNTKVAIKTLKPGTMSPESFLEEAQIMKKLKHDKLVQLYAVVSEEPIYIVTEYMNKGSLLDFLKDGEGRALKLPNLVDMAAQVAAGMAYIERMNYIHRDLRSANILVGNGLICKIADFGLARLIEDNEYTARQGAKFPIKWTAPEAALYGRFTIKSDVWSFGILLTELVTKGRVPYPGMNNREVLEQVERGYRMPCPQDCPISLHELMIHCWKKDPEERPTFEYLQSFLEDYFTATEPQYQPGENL
T7 sequence (Q06187 whole entry): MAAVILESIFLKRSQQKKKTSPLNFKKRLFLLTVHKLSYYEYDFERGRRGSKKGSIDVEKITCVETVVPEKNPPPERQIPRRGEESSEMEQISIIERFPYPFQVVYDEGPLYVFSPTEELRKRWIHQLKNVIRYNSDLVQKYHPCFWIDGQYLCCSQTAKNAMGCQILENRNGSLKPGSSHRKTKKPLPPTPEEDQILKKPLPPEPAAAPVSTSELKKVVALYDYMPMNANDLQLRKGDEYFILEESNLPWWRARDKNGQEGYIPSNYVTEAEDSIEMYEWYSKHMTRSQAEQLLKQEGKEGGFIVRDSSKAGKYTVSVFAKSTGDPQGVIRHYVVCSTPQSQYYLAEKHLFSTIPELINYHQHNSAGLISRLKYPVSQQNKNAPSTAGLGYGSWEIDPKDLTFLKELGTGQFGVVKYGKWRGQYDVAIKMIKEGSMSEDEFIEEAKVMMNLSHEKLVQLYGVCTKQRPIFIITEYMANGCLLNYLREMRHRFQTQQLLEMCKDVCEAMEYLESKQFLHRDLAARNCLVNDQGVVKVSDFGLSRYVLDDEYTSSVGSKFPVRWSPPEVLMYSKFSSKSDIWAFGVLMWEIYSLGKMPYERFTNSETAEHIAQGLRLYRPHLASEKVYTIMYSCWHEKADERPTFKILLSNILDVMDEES
T2 sequence (P07948 1-491 isoform P07948-2): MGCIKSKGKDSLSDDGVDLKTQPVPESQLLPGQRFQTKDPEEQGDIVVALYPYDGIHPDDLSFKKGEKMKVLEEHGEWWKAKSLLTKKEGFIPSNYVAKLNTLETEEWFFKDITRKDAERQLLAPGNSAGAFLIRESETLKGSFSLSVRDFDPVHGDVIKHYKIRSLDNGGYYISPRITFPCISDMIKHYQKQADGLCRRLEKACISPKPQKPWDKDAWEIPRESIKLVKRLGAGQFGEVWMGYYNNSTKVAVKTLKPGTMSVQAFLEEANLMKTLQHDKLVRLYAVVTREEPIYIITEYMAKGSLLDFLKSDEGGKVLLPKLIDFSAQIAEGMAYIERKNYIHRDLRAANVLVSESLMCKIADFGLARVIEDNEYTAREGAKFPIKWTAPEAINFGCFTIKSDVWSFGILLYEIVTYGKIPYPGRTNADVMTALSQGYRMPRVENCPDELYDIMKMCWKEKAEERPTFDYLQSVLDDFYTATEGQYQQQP
T5 sequence (P06239 whole entry): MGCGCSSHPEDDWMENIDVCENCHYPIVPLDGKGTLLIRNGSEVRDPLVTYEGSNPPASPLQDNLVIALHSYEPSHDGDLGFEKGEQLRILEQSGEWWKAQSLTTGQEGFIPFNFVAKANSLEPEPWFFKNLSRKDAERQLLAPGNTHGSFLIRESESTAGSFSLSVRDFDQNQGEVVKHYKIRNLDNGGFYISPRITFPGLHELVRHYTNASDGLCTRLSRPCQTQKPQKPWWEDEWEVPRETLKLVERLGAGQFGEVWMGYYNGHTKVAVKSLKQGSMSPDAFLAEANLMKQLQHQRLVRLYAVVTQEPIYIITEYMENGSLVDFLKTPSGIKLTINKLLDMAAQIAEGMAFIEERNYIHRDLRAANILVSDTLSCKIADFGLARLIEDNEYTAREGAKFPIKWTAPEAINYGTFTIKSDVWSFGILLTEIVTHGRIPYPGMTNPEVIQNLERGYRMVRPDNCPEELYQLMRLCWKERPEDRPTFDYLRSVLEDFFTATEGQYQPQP
T4 sequence (P12931 whole entry): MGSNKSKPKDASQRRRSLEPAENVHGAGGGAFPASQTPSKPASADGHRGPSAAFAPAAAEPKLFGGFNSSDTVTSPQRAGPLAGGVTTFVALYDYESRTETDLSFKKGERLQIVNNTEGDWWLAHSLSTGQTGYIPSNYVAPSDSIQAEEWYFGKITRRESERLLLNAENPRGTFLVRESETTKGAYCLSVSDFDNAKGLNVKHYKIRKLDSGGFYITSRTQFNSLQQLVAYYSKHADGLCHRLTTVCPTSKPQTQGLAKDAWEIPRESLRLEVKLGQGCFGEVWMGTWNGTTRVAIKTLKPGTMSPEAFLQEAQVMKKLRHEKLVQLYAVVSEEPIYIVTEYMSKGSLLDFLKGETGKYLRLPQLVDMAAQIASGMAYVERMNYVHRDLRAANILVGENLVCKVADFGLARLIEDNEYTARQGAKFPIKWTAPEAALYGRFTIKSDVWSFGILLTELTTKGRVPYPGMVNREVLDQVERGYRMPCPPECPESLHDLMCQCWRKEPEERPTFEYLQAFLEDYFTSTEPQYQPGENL
T9 sequence (Q13882 whole entry): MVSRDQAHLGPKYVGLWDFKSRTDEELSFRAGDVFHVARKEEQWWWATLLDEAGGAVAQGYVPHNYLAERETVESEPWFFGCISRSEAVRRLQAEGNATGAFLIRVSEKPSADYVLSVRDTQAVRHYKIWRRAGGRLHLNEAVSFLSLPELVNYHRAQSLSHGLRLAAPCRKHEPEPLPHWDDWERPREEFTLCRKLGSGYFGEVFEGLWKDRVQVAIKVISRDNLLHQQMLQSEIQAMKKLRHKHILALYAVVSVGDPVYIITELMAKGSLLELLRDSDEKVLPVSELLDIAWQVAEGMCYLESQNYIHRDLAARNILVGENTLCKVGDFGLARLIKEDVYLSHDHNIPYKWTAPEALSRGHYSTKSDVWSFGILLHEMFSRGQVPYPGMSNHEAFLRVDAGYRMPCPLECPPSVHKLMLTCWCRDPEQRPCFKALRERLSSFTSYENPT

Row | Combination index [CI] [4] | IC50 [11] [nM] | inhibition at 0.5 µM [11] [%] | IC50 [12] [µM] | inhibition at 0.5 µM [12] [%] | IC50 [13] [µM] | inhibition at 0.5 µM [13] [%] | inhibition at 0.5 µM [14] [%] | inhibition at 0.5 µM [15] [%] | inhibition at 0.5 µM [16] [%] | IC50 [17] [nM] | inhibition at 0.5 µM [17] [%] | inhibition at 0.5 µM [18] [%] | SMILES | D-2-HG level after treatment (decrease to) [1] [%] | IC50 [5] [µM] | IC50 [6] [µM] | IC50 [7] [µM] | IC50 [8] [µM] | IC50 [9] [µM] | IC50 [10] [µM] | further results
1 | – | – | – | – | – | – | – | – | – | – | – | – | – | CNC(=O)c1ccccc1Sc1ccc2c(/C=C/c3ccccn3)n[nH]c2c1 [Axitinib, axitinib, reference compound] | – | – | – | – | – | – | – | reduced level of 2-hydroxyglutarate ([1]; axitinib 0.5 μM): 46%
2 | – | – | – | – | – | – | – | – | – | – | – | – | – | NC(=O)c1cccc(-c2cc(Nc3ccc(OC(F)(F)F)cc3)ncn2)c1 [GNF-2] | – | – | – | – | – | – | – | level of activity towards recombinant ABL1 protein [2]: ~ 1 μM
3 | – | – | – | – | – | – | – | – | – | – | – | – | – | C[C@H](O)c1cccc(NC(=O)c2nn(Cc3ccc(F)cc3)c3c2CN(C(=O)c2ccc[nH]2)C[C@H]3C)c1 [GSK-321] | – | – | – | – | – | – | – | inhibitory activity against IDH1 R132H in biochemical tests [3]: 4.6 nM
4 | 0.5 | 934 | 42.8 ± 8.46 | 5 | 0 | 5.02 | 29.3 ± 7.43 | 0 | 34.7 ± 2.51 | 38.4 ± 6.15 | 4940 | 32.3 ± 7.43 | 29.9 ± 4.29 | CCCCc1ccc(NS(=O)(=O)c2ccc(C)c(C(=O)N3CCN(c4ccccc4O)CC3)c2)cc1 [TOS-1, N-(4-butylphenyl)-3-[4-(2-hydroxyphenyl)piperazine-1-carbonyl]-4-methylbenzene-1-sulfonamide] | 24 | 24.7 ± 0.32 | 27.59 ± 0.17 | 18.1 ± 1 | 27.83 ± 0.17 | 25.2 ± 3.38 | 12.7 ± 3.2 | Fa (fraction affected), combination with axitinib ([4]; TOS-1 0.375 µM + axitinib 0.125 µM): 0.3787; Fa (fraction affected), combination with axitinib ([4]; TOS-1 0.625 µM + axitinib 0.25 µM): 0.4837; Fa (fraction affected), combination with axitinib ([4]; TOS-1 1.25 µM + axitinib 0.5 µM): 0.7204; Fa (fraction affected), combination with axitinib ([4]; TOS-1 2.5 µM + axitinib 1 µM): 0.8412; Fa (fraction affected), single agent ([4]; dose 0.375 µM): 0.1126; Fa (fraction affected), single agent ([4]; dose 0.625 µM): 0.4149; Fa (fraction affected), single agent ([4]; dose 1.25 µM): 0.559; Fa (fraction affected), single agent ([4]; dose 2.5 µM): 0.5863; IC50 [18]: 4.15 µM; inhibition at 0.5 µM [19]: 22.6 ± 0.94%
5 | 0.75 | 401 | 59.2 ± 8.12 | 5 | 0 | > 10 | 26.1 ± 6.61 | 13.8 ± 4.23 | 0 | 9.66 ± 3.59 | 522 | 50.9 ± 1.87 | 19.6 ± 2.78 | CCCCc1ccc(NS(=O)(=O)c2ccc(C)c(C(=O)N3CCN(c4ccccc4OCCF)CC3)c2)cc1 [TOS-2, N-(4-butylphenyl)-3-{4-[2-(2-fluoroethoxy)phenyl]piperazine-1-carbonyl}-4-methylbenzene-1-sulfonamide] | 48 | 24.4 ± 0.82 | > 30 | 15.6 ± 1.35 | 28.9 ± 1.07 | 18.9 ± 0.42 | 17.3 ± 2.23 | Fa (fraction affected), combination with axitinib ([4]; TOS-2 0.0625 µM + axitinib 0.0625 µM): 0.354; Fa (fraction affected), combination with axitinib ([4]; TOS-2 0.125 µM + axitinib 0.125 µM): 0.4632; Fa (fraction affected), combination with axitinib ([4]; TOS-2 0.25 µM + axitinib 0.25 µM): 0.6215; Fa (fraction affected), combination with axitinib ([4]; TOS-2 0.5 µM + axitinib 0.5 µM): 0.6852; Fa (fraction affected), combination with axitinib ([4]; TOS-2 1 µM + axitinib 1 µM): 0.8101; Fa (fraction affected), single agent ([4]; dose 0.0625 µM): 0.07245; Fa (fraction affected), single agent ([4]; dose 0.125 µM): 0.2475; Fa (fraction affected), single agent ([4]; dose 0.25 µM): 0.3737; Fa (fraction affected), single agent ([4]; dose 0.5 µM): 0.518; Fa (fraction affected), single agent ([4]; dose 1 µM): 0.638; inhibition at 0.5 µM [19]: 0%
6 | – | – | – | – | – | – | – | – | – | – | – | – | – | N#Cc1ccnc(N2C(=O)CC[C@H]2C(=O)N(c2cncc(F)c2)[C@H](C(=O)NC2CC(F)(F)C2)c2ccccc2Cl)c1 [ivosidenib] | – | – | – | – | – | – | – | IC50 [20]: 24 nM; IC50 ([3]; read-out: IC50 IDH1 mutant): 12 nM
